Experimental findings from ChEMBL document CHEMBL5223123, “Synthesis and pharmacological characterization of multiply substituted 2H-chromene derivatives as P2Y6 receptor antagonists” (Bioorg Med Chem Lett, 2022) are described below.

Molecules are shown by their SMILES. Where only a bound is given, the exact number is not on record here.

The target of series [1] is P2Y purinoceptor 2 (Homo sapiens) (UniProt P41231). Put plainly: Antagonist activity at human P2Y2R expressed in human 1321N1 cells assessed as inhibition of […] calcium mobilization at 100 uM by FLIPR assay relative to control. Also noted: scale not given: the % may be the effect or the level left. The series is classed as cell-based. A general note: Calcium flux is commonly read through the fluorescence of an indicator in the cells.
P2Y purinoceptor 2 (Homo sapiens), sequence (P41231 whole entry): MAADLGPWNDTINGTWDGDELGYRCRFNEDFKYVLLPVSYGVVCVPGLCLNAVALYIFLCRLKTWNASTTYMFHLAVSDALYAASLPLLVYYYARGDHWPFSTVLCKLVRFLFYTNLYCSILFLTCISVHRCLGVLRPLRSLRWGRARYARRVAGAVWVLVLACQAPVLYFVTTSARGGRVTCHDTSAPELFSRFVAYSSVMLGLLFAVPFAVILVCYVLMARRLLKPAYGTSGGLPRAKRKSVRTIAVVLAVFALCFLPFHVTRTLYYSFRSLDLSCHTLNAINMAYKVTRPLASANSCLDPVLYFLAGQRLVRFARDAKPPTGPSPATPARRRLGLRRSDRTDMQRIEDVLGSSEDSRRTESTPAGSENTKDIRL

Series [2] has as its target P2Y purinoceptor 6 (Mus musculus, UniProt Q9ERK9). Description: Antagonist activity at mouse P2Y6R expressed in human 1321N1 cells assessed as inhibition of […] calcium mobilization by FLIPR assay. The class given is cell-based.
The subject of the next series is HEK293. Description: Cytotoxicity against HEK293 cells assessed as reduction in cell viability at 100 uM measured after 24 hrs by MTT assay relative to control. The series is classed as toxicity, cell-based. The following applies: human, hek293, 24 h. In general terms: Formazan colour is commonly taken as a measure of viable cells.
Series [3] addresses P2Y purinoceptor 1 (Meleagris gallopavo) (UniProt P49652). Description: Antagonist activity at Meleagris P2Y1R expressed in human 1321N1 cells assessed as inhibition of […] calcium mobilization at 100 uM by FLIPR assay relative to control. The class given is cell-based. Also noted: scale not given: the % may be the effect or the level left.
The target of series [4] is P2Y purinoceptor 4 (Homo sapiens) (UniProt P51582). Description: Antagonist activity at human P2Y4R expressed in human 1321N1 cells assessed as inhibition of […] calcium mobilization at 100 uM by FLIPR assay relative to control. The class given is cell-based. Also noted: scale not given: the % may be the effect or the level left.
P2Y purinoceptor 4 (Homo sapiens), sequence (P51582 whole entry): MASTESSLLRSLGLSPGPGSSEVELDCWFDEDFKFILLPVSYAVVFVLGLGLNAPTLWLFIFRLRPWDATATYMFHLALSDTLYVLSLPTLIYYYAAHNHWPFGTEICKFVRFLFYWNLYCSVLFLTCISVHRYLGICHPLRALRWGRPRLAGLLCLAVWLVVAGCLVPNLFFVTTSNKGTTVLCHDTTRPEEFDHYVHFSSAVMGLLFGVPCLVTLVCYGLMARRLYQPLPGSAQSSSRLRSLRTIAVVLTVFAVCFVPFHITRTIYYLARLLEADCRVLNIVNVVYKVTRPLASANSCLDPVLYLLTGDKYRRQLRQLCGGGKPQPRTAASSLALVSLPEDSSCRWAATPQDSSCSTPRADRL
In series [5] the target is T1, P2Y purinoceptor 6 (Homo sapiens, UniProt Q15077). Description: Antagonist activity at human P2Y6R expressed in human 1321N1 cells assessed as inhibition of […] calcium mobilization by FLIPR assay. The class given is cell-based.
T1 sequence (Q15077 whole entry): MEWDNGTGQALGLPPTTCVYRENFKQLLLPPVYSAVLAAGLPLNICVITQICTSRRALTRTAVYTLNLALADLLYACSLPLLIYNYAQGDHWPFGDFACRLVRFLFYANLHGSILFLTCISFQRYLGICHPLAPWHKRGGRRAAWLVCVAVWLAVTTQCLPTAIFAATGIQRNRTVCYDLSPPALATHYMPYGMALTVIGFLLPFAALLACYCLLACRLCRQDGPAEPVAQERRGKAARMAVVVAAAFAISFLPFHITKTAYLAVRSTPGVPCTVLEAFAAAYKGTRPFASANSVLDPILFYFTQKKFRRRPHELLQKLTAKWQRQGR
For series [6], the target named is P2Y purinoceptor 6 (Mus musculus) (UniProt Q9ERK9). Description: Antagonist activity at mouse P2Y6R expressed in human 1321N1 cells assessed as inhibition of […] calcium mobilization at 20 uM by FLIPR assay relative to control. The series is classed as cell-based. Also noted: scale not given: the % may be the effect or the level left.
P2Y purinoceptor 6 (Mus musculus), sequence (Q9ERK9 whole entry): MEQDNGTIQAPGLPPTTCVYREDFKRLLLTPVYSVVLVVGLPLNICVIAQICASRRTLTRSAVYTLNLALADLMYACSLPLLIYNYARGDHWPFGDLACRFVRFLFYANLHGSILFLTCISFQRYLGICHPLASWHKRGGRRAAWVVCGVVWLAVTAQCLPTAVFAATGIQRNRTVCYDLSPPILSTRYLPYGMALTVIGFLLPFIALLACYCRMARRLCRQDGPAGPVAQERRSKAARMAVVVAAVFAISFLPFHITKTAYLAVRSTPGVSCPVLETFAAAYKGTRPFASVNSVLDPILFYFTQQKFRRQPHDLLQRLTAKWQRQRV
The target in series [7] is T1, P2Y purinoceptor 6. Put plainly: Antagonist activity at human P2Y6R expressed in human 1321N1 cells assessed as inhibition of […] calcium mobilization at 100 uM by FLIPR assay relative to control. The class given is cell-based. Also noted: scale not given: the % may be the effect or the level left.
For the next series, the target named is D(1B) dopamine receptor (Homo sapiens, UniProt P21918). Description: Binding affinity to dopamine 5 receptor (unknown origin).
D(1B) dopamine receptor, sequence (P21918 whole entry): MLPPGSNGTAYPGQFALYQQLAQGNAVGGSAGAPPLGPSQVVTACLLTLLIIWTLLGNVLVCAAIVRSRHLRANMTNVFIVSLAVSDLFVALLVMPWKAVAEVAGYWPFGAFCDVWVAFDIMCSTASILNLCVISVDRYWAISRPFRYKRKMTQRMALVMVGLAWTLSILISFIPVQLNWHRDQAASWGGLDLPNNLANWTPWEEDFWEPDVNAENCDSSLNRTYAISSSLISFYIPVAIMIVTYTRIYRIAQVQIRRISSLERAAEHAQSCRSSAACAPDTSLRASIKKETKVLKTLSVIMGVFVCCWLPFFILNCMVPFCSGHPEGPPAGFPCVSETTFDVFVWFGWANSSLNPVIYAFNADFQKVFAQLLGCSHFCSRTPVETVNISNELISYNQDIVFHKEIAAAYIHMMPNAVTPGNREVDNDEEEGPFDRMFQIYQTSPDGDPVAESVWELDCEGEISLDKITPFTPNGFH
The target of another series is Histamine H1 receptor (Homo sapiens, UniProt P35367). Description: Binding affinity to histamine H1 receptor (unknown origin).
Histamine H1 receptor, sequence (P35367 whole entry): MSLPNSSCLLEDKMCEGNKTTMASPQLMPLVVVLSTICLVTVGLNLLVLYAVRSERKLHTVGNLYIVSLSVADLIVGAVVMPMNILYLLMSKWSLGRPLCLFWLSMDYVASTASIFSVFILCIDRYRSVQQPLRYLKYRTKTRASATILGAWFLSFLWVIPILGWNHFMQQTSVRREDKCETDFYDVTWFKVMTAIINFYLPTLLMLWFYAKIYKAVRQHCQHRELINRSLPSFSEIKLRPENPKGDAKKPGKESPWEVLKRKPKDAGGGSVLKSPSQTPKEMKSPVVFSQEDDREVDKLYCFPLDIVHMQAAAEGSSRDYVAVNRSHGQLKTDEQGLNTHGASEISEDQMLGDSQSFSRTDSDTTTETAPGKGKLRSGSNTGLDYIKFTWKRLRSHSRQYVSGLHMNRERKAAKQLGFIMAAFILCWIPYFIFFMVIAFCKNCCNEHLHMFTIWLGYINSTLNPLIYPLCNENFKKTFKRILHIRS
In series [8] the target is 5-hydroxytryptamine receptor 2A (Homo sapiens, UniProt P28223). Put plainly: Binding affinity to 5-HT2A (unknown origin).
5-hydroxytryptamine receptor 2A, sequence (P28223 whole entry): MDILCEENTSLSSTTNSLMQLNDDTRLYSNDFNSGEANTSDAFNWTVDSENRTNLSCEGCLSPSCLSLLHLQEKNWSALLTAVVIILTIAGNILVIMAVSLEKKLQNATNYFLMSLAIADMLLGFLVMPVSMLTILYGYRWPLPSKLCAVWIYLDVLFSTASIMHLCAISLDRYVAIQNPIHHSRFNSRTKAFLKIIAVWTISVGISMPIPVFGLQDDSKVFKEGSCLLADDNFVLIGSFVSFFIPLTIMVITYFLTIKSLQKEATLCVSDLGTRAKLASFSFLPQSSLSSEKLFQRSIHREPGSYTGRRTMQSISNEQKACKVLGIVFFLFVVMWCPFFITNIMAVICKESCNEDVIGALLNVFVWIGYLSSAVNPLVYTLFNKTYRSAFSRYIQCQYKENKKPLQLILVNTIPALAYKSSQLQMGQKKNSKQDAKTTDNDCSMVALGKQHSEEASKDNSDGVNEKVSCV
For series [9], the target named is Beta-3 adrenergic receptor (Homo sapiens, UniProt P13945). Description: Binding affinity to adrenergic beta 3 (unknown origin).
Beta-3 adrenergic receptor, sequence (P13945 whole entry): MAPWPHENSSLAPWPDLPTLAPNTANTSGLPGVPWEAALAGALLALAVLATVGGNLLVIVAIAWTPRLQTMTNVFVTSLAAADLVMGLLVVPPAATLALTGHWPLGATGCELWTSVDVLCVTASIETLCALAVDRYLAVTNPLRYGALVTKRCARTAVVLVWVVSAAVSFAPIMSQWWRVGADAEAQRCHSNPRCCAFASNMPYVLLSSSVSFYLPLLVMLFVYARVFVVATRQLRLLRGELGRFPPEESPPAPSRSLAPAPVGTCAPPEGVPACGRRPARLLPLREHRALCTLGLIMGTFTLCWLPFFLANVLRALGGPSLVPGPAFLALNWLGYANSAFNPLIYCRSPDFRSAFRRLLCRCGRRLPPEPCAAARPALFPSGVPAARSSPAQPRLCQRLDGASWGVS
For series [10], the target named is Sigma non-opioid intracellular receptor 1 (Homo sapiens, UniProt Q99720). Description: Binding affinity to sigma 1 receptor (unknown origin).
Sigma non-opioid intracellular receptor 1, sequence (Q99720 whole entry): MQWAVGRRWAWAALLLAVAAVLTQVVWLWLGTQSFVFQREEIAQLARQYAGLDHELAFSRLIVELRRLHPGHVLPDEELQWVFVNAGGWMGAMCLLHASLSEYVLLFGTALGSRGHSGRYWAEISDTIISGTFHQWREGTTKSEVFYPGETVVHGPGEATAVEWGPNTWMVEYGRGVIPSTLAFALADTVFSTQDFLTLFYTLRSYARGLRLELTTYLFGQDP
Series [11] concerns the target T2, Alpha-2C adrenergic receptor (Homo sapiens, UniProt P18825).
T2 sequence (P18825 whole entry): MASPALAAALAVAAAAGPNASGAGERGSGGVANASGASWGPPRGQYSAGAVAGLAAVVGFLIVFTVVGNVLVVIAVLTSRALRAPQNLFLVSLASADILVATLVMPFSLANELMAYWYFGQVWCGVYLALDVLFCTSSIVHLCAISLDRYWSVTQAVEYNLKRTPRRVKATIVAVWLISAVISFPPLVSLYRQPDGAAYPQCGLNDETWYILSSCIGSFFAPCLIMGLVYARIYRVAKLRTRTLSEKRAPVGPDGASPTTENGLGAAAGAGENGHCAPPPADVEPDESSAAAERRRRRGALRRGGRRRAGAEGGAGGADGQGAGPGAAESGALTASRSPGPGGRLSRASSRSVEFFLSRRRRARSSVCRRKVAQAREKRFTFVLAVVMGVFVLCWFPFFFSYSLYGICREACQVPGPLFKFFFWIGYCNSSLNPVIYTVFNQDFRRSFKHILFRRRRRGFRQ
Put plainly: Binding affinity to adrenergic alpha 2c receptor (unknown origin).

Series [12] addresses Sigma intracellular receptor 2 (Homo sapiens, UniProt Q5BJF2). Description: Binding affinity to sigma 2 receptor (unknown origin).
For the next series, the target named is D(3) dopamine receptor (Homo sapiens, UniProt P35462). Put plainly: Binding affinity to dopamine 3 receptor (unknown origin).
D(3) dopamine receptor, sequence (P35462 whole entry): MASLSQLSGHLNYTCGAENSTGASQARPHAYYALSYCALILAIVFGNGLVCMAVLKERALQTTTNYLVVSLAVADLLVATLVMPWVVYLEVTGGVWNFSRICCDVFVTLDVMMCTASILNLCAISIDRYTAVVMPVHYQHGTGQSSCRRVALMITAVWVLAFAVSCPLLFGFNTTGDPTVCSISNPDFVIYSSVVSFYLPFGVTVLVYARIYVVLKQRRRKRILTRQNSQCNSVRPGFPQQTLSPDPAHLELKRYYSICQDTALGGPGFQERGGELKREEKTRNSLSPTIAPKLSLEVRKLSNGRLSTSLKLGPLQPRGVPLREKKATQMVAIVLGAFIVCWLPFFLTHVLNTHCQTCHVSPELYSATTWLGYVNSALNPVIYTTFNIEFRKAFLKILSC

P2Y purinoceptor 6 (Mus musculus, UniProt Q9ERK9), sequence (Q9ERK9 whole entry): as the sequence (Q9ERK9 whole entry) above
P2Y purinoceptor 1 (Meleagris gallopavo), sequence (P49652 whole entry): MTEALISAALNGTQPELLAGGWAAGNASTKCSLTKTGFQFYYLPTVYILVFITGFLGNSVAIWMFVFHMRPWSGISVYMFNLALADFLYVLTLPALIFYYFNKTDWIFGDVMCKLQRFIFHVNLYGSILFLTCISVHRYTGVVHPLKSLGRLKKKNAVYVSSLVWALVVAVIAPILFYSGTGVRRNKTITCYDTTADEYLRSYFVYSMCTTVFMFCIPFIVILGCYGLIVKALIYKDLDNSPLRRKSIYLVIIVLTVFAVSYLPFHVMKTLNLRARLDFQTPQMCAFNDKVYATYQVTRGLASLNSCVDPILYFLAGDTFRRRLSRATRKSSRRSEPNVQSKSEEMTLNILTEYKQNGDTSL
Sigma intracellular receptor 2, sequence (Q5BJF2 whole entry): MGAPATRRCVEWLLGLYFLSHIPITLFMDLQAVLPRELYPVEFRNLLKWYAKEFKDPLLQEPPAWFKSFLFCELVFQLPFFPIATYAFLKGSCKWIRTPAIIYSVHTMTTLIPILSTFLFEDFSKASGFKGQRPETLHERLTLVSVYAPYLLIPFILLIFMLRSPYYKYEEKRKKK

For the compound `CC[Si](C#Cc1ccc2c(c1)C=C([N+](=O)[O-])C(C(F)(F)F)O2)(CC)CC` (racemic), the Activity is less than 30% in series [1], 73% in the series on HEK293, less than 30% in series [3] and less than 30% in [4]. The IC50 (as a rule, the concentration at which inhibition is half-maximal) at P2Y purinoceptor 6 [2] turned out to be 4.94 µM.
For `CC[Si](C#Cc1cccc2c1C=C([N+](=O)[O-])C(C(F)(F)F)O2)(CC)CC` (racemic), the IC50 at P2Y purinoceptor 6 [5] was 4.77 µM.
Take `O=[N+]([O-])C1=Cc2cccc(Cl)c2OC1C(F)(F)F` (racemic): the IC50 was 15.2 µM on P2Y purinoceptor 6 [2] and 3.69 µM at P2Y purinoceptor 6 [5].
Consider `O=[N+]([O-])C1=Cc2ccccc2OC1C(F)(F)F` (racemic), for which, on P2Y purinoceptor 6 [2], the IC50 is 185 µM.
For the compound `O=[N+]([O-])C1=Cc2cccc(I)c2OC1C(F)(F)F` (racemic), the IC50 on P2Y purinoceptor 6 [2] is 17.6 µM.
For the compound `O=C(O)c1ccc(C#Cc2ccc3c(c2)C=C([N+](=O)[O-])C(C(F)(F)F)O3)cc1` (racemic), the Activity is less than 30% in series [1]; 95% in the series on HEK293; less than 30% in series [3]; less than 30% in series [4]; 14% in series [6].
In the case of `O=[N+]([O-])C1=Cc2cc(I)ccc2OC1C(F)(F)F` (racemic), on P2Y purinoceptor 6 [2], the IC50 stood at 28.7 µM.
Regarding `O=[N+]([O-])C1=Cc2ccc(Cl)cc2OC1C(F)(F)F` (racemic), the IC50 at P2Y purinoceptor 6 [5] came out at 7.98 µM.
As for `FC(F)(F)C1Oc2ccc(Cl)cc2-c2n[nH]nc21` (racemic), the Activity on P2Y purinoceptor 6 [7] (filed as antagonist) was determined as 43%.
As for `O=[N+]([O-])C1=Cc2c(Cl)cccc2OC1C(F)(F)F` (racemic), the IC50 at P2Y purinoceptor 6 [5] turned out to be 15.7 µM.
Consider `CC[Si](C#Cc1ccc2c(c1)C=C([N+](=O)[O-])C(C1CC1)O2)(CC)CC` (racemic), for which the Activity at P2Y purinoceptor 6 [7] (filed as antagonist) stood at 50%.
For `O=[N+]([O-])C1=Cc2c(I)cccc2OC1C(F)(F)F` (racemic), the 50% inhibitory concentration (IC50) at P2Y purinoceptor 6 [5] stood at 13.1 µM.
For the compound `NC1Cc2ccccc2OC1C(F)(F)F` (racemic), the Activity on P2Y purinoceptor 6 [7] worked out at 0%.
Consider `O=[N+]([O-])C1=Cc2cc(C#Cc3ccc(CO)cc3)ccc2OC1C(F)(F)F` (racemic), for which the IC50 on P2Y purinoceptor 6 [2] is 31.6 µM. In addition, on D(1B) dopamine receptor, the Ki (as a rule, a measure of affinity in units of concentration, obtained from inhibition or displacement) was 0.6 µM.
With `CC[Si](C#Cc1cccc2c1OC(C(F)(F)F)C([N+](=O)[O-])=C2)(CC)CC` (racemic), the Activity in [1] is less than 30%; in the series with HEK293, 83%; in [3] it was 39.2%; in [4], less than 30%. Besides, the IC50 amounted to 6.15 µM on P2Y purinoceptor 6 [2] and 0.461 µM on P2Y purinoceptor 6 [5]. Also, the Ki on Histamine H1 receptor stood at 3.5 µM; in series [8], 4.2 µM; in series [9] it was 7.3 µM; in [10] it was 6.4 µM; in [11] it was 1.1 µM.
Consider `O=[N+]([O-])C1=Cc2cc(I)ccc2OC1C1CCC1` (racemic), for which the IC50 on P2Y purinoceptor 6 [5] was determined as 33.1 µM.
With `O=[N+]([O-])C1=Cc2cc(F)cc(F)c2OC1C(F)(F)F` (racemic), the results for the IC50 on P2Y purinoceptor 6 [2] and on P2Y purinoceptor 6 [5] were 17.8 µM and 2.99 µM, respectively.
Consider `O=[N+]([O-])C1=Cc2cc(C#Cc3ccc(F)cc3)ccc2OC1C(F)(F)F` (racemic), for which, at P2Y purinoceptor 6 [5], the IC50 worked out at 8.86 µM.
Take `O=[N+]([O-])C1=Cc2cc(C#Cc3ccc(Cl)cc3)ccc2OC1C(F)(F)F` (racemic): the IC50 at P2Y purinoceptor 6 [5] stood at 5.35 µM.
As for `O=[N+]([O-])C1=Cc2cc(F)ccc2OC1C(F)(F)F` (racemic), in [12], the affinity corresponds to a Ki of 8.6 µM.
As to `CC1Oc2ccc(I)cc2C=C1[N+](=O)[O-]` (racemic), the IC50 at P2Y purinoceptor 6 [5] came out at 36.8 µM.
`O=[N+]([O-])C1=Cc2cc(F)cc(Br)c2OC1C(F)(F)F` (racemic): the IC50 on P2Y purinoceptor 6 [2] is 14.5 µM.
Consider `O=[N+]([O-])C1=Cc2cc(Br)ccc2OC1C(F)(F)F` (racemic), for which the IC50 on P2Y purinoceptor 6 [2] was 20.2 µM.
As for `O=[N+]([O-])C1=Cc2cc(Cl)ccc2OC1C(F)(F)F` (racemic), the IC50 on P2Y purinoceptor 6 [2] is 30.8 µM. Besides, the Ki at D(3) dopamine receptor is 0.78 µM; on D(1B) dopamine receptor it was 2.79 µM.
Take `C[Si](C)(C)C#Cc1ccc2c(c1)C=C([N+](=O)[O-])C(C(F)(F)F)O2` (racemic): the Activity in [1] is less than 30%; in the series with HEK293 it was 58%; in [3] it was less than 30%; in series [4], less than 30%.
